Source: patent publication US20260345593A1, “ORAL FORMULATION OF N-PYRIDINYL ACETAMIDE DERIVATIVE FOR TREATING INTERSTITIAL LUNG DISEASE” (AstraZeneca AB, priority 2022, published 2026)

What was measured:
[1] = oral bioavailability in several animal species; settings: in vivo, read-out: observed oral bioavailability
[2] = cited from earlier work
healthy subjects [3] = test: Example 1 Part 2 (MAD): safety in healthy subjects; format: in vivo, human
Protocol: Part 2 comprises a Screening Period of a maximum of 6 weeks. This is followed by a treatment period during which subjects are resident at the Clinical Unit from 1 day before IMP administration (Day −1) until at least 72 hours after the last dose given on Day 16 (Day 19). Subjects are dosed for a total of 15 days and receive a single once daily morning dose of AZD5055 or placebo on Day 1 and on Days 3 through Day 16, with no dosing on Day 2. This is followed up a Follow-up Visit within 6±1 day after the IMP dose, and an additional Follow-up Visit within 29±2 days after the last IMP dose.
For cohorts with QD dosing regimens, the Screening Period is followed by a Treatment Period during which subjects are resident at the Clinical Unit from 1 day before IMP administration (Day −1) until at least 72 hours after the last dose given on Day 16 (Day 19). Subjects are dosed for a total of 15 days, receiving a single QD morning dose of AZD5055 or placebo on Day 1 and on Days 3 through Day 16.
For cohorts with BID dosing regimens, the Screening Period is followed by a Treatment Period during which subjects are resident at the Clinical Unit from 1 day before IMP administration (Day −1) until at least 72 hours after the last dose given on Day 16 (Day 19).
Subjects are dosed for a total of 15 days, receiving a single morning dose of AZD5055 or placebo on Day 1 and Day 16, and repeated BID dosing on Day 3 through Day 15, 12 hours (±30 minutes) apart.
For both cohorts, the Treatment Period is followed by a Follow-up Visit within 6±1 day after the last IMP dose, and an additional Follow-up Visit within 29±2 days after the last IMP dose.
(§1) The study was conducted in healthy male and healthy female subjects of non-childbearing potential with suitable veins for cannulation or repeated venipuncture. […] Also, the subjects were aged 18 to 55 years inclusive for men and women in Part 1 and only men in Part 2. For female subjects in Part 2, the age range was 18 to 49 years inclusive.
(§2) In Part 1 of the study, 3 dose levels of AZD5055 were investigated in 3 cohorts. Each cohort included 8 subjects. Within each cohort, 6 subjects were randomized to receive AZD5055, and 2 subjects were randomized to receive placebo. In Part 2 of the study, 3 dose levels of AZD5055 were investigated in 3 cohorts. In each cohort, 9 subjects were randomized to receive AZD5055, and 3 subjects were randomized to receive placebo.
(§3) Safety endpoints included adverse events; vital signs (supine blood pressure, pulse, respiratory rate, and body temperature); 12-lead ECG, 12-lead dECG, telemetry, physical examinations, clinical laboratory assessments (hematology, clinical chemistry [including serum creatinine and creatine phosphokinase], urinalysis [including protein and albumin creatinine ratios], and cardiac biomarkers [including cardiac Troponin T (cTNT), cardiac Troponin I; (cTNI), and B type natriuretic peptide]), and peripheral oxygen saturation (SpO2).
(§4) All safety data (scheduled and unscheduled) were presented in the data listings. Continuous variables were summarized using descriptive statistics (n, mean, standard deviation, min, median, max) by treatment. Categorical variables were summarized in frequency tables (frequency and proportion) by treatment (both Parts 1 and 2). The analysis of the safety variables was based on the safety analysis set. Adverse events were summarized by System Organ Class (SOC) and Preferred Term (PT) using Medical Dictionary for Regulatory Activities vocabulary. Furthermore, listings of serious adverse events (SAEs) and adverse events leading to the discontinuation of IMP (DAEs) were made and the number of subjects who had any adverse events (AEs), SAEs, DAEs and AEs with severe intensity were summarized. Adverse events that occur before dosing were reported separately. Tabulations and listings of data for ECG, vital signs, AEs, and clinical laboratory tests, measurements were presented.

β-catenin reporter = β-catenin reporter assay, rodent cells (Bunyard 2019); read-out: in vitro IC50; cited from earlier work
healthy subjects [4] = test: Example 1 Part 1 (SAD): safety in healthy subjects; format: in vivo, human
Protocol: Part 1 comprises a Screening Period of a maximum of 6 weeks. This is followed by a Treatment Period during which subjects are resident at the Clinical Unit from 1 day before investigational medicinal product (IMP) administration (Day −1) until at least 72 hours after IMP administration (Day 4). Subjects receive a single oral dose of AZD5055 or placebo on Day 1. This is followed by a Follow-up Visit within 6±1 day after the IMP dose.
as §1, §2, §3, §4

CYP3A4 = test: Example 1: 4-β-hydroxy-cholesterol levels in blood (CYP3A4 activity); format: in vivo, human; settings: healthy subjects
From the text: Change from baseline in 4-β-hydroxy-cholesterol levels in blood.
Plasma 4-β-hydroxy-cholesterol levels at baseline and the last day of dosing were statistically analyzed using a linear mixed model analysis of covariance with treatment as a fixed effect and the baseline concentration of 4-β-hydroxy-cholesterol as covariate.

[5] = Part 2, across all AZD5055 doses
[6] = Part 1, across all AZD5055 doses

Question: Which results are given for `Cc1cc(-c2nccc3c2ccn3CC(=O)Nc2ccc(-c3cnccn3)cn2)ccn1` [AZD5055, 2-[4-(2-methyl-4-pyridyl)pyrrolo[3,2-c]pyridin-1-yl]-N-(5-pyrazin-2-yl-2-pyridyl)acetamide]?
Answer: bioavailability [1]: 40 to 60%; solubility [2]: pH dependent; tolerability (healthy subjects [3]; 5, 15 and 20 mg QD, oral suspension): well tolerated at all administered doses; AE intensity, majority of AEs (healthy subjects [3]; Part 2): Grade 1 (mild); AEs leading to discontinuation of AZD5055 (healthy subjects [3]; Part 2): 3 AEs; SAEs or deaths (healthy subjects [3]; Part 2): no SAEs or deaths; clinical laboratory results, vital signs, physical examinations, ECGs (healthy subjects [3]; Part 2): No clinically relevant trends; trends for AEs by SOC or PT (healthy subjects [3]; Part 2): no notable trends; subjects with AE of ventricular tachycardia/non-sustained ventricular tachycardia, Grade 2, possibly related (healthy subjects [3]; Part 2, 5 mg dose): Two; subjects with AE of coronavirus infection, Grade 1, not considered related (healthy subjects [3]; Part 2, 15 mg dose): One; AEs possibly related to AZD5055, total (healthy subjects [3]; [5]): 7 AEs; subjects with an AE of Grade 2 (moderate) intensity (healthy subjects [3]; [5]): 5 subjects; subjects with at least one AE (healthy subjects [3]; [5]): 21 subjects; AE outcome (healthy subjects [3]; Part 2, all AEs, by end of study): recovered/resolved by the end of the study; possibly related AEs: breath odour (healthy subjects [3]; Part 2, number of AEs): 1; possibly related AEs: dysgeusia (healthy subjects [3]; Part 2, number of AEs): 1; possibly related AEs: headache (healthy subjects [3]; Part 2, number of AEs): 3; possibly related AEs: photophobia (healthy subjects [3]; Part 2, number of AEs): 1; possibly related AEs: ventricular tachycardia (healthy subjects [3]; Part 2, number of AEs): 2; IC50 (β-catenin reporter): 640 pM; AEs possibly related to AZD5055 (healthy subjects [4]; Part 1): dizziness, ventricular tachycardia, wheezing, upper abdominal pain, vomiting, and nausea; clinical laboratory results, vital signs, physical examinations, ECGs (healthy subjects [4]; Part 1): No clinically relevant trends; trends for AEs by SOC or PT (healthy subjects [4]; Part 1): no notable trends; subjects with at least one AE (healthy subjects [4]; [6]): 4 subjects; subjects with at least one AE possibly related to AZD5055 (healthy subjects [4]; [6]): 3 subjects; subjects with at least one AE possibly related to AZD5055, percent (healthy subjects [4]; [6]): 16.7%; subjects with at least one AE, percent (healthy subjects [4]; [6]): 22.2%; AE intensity (healthy subjects [4]; Part 1, all AEs): Grade 1 (mild); AE outcome (healthy subjects [4]; Part 1, all AEs, by end of study): recovered/resolved by the end of the study; SAEs, deaths, AEs leading to discontinuation or withdrawal (healthy subjects [4]; Part 1, all doses): no SAEs, deaths, or AEs leading to discontinuation of AZD5055 or withdrawal from the study; tolerability (healthy subjects [4]; single oral suspension dose 7, 20 and 40 mg, n=6 per dose level): well-tolerated; effect on 4-β-hydroxy-cholesterol (CYP3A4; 14 days of once daily dosing): no effect on 4-β-hydroxy-cholesterol; effect on CYP3A4 activity (CYP3A4; inferred from 4-β-hydroxy-cholesterol): no significant effect on CYP3A4 activity
